# According to patent US20260184693A1, “INHIBITORS OF SOLUTE CARRIER FAMILY 6A MEMBER 19 (SLC6A19) AND METHODS OF USE THEREOF” (Maze Therapeutics, Inc., priority 2022, published 2026):
# Biological target: T1, human SLC6A19 (Homo sapiens, UniProt Q695T7)
# T1 construct: expressed in transfected cells
# T1 sequence (Q695T7 1-634): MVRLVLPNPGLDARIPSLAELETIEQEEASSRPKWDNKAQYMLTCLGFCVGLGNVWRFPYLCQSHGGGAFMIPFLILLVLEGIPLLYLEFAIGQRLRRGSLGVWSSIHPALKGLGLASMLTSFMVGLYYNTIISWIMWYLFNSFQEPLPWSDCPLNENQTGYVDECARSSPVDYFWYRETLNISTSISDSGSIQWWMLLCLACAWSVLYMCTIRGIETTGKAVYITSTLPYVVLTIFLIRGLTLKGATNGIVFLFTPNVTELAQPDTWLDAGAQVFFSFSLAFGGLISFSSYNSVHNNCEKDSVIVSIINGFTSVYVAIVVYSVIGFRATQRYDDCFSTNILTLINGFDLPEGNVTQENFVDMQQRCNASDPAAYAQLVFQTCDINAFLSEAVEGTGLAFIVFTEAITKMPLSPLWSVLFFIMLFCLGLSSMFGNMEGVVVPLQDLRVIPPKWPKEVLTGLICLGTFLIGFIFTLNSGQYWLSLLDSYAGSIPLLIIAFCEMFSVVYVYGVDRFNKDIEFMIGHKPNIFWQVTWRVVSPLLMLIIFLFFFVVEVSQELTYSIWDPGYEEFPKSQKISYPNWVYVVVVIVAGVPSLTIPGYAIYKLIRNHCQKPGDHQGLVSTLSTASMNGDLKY
# T1 sequence (Q9HBJ8 15-222 partner): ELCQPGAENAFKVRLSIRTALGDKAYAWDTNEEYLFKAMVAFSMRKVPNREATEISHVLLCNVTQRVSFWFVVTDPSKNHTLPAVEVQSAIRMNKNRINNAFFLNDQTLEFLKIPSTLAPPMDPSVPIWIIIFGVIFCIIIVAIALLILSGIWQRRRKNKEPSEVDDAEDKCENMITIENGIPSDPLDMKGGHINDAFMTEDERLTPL
# Assay: Example B2: 13C6,15N-isoleucine uptake, RapidFire mass spectrometry, in CHO cells with doxycycline-inducible expression of human SLC6A19 and TMEM27
# Format: cell-based
# Conditions: read-out: SLC6A19_RapidFire Uptake Assay IC50
# Method in brief: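 CHO cells were induced with doxycycline to express human SLC6A19 with TMEM27, then pre-incubated 20 min at 37 °C with compounds (2-fold, 10-point, duplicate). Uptake of 13C6,15N-isoleucine (2 mM solution added) over a further 20 min was measured by RapidFire mass spectrometry, using 13C-leucine as internal standard.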
row,IC50 [nM],Structure (SMILES)
1,4670,"CC(=O)N1CCC[C@@H](N(C)C(=O)NCc2ccc3c(C)c[nH]c3c2)C1 [Compound 223, (R)-1-(1-acetylpiperidin-3-yl)-1-methyl-3-((3-methyl-1H-indol-6-yl)methyl)urea]"
2,40.4,"CN(C(=O)NCc1cc2cc(Cl)ccc2[nH]1)[C@@H]1CCCN(c2ccon2)C1 [Compound 151, (R)-3-((5-chloro-1H-indol-2-yl)methyl)-1-(1-(isoxazol-3-yl)piperidin-3-yl)-1-methylurea]"
3,556,"Cc1cnc(C(=O)N2CCC[C@@H](N(C)C(=O)NCc3cc4cc(Cl)ccc4[nH]3)C2)s1 [Compound 35, (R)-3-((5-chloro-1H-indol-2-yl)methyl)-1-methyl-1-(1-(5-methylthiazole-2-carbonyl)piperidin-3-yl)urea]"
4,> 4290,"CN(C(=O)NCc1cc2cc(Cl)ccc2[nH]1)[C@@H]1CCCN(C(=O)C2(F)CC2)C1 [Compound 16, (R)-3-((5-chloro-1H-indol-2-yl)methyl)-1-(1-(1-fluorocyclopropane-1-carbonyl)piperidin-3-yl)-1-methylurea]"
5,350,"CN(C(=O)NCc1cc2cc(Cl)ccc2[nH]1)[C@@H]1CCCN(C(=O)C2CC(F)(F)C2)C1 [Compound 44, (R)-3-((5-chloro-1H-indol-2-yl)methyl)-1-(1-(3,3-difluorocyclobutane-1-carbonyl)piperidin-3-yl)-1-methylurea]"
6,2460,"CN(C(=O)NCc1cc2cc(Cl)ccc2[nH]1)[C@@H]1CCCN(C(=O)CNC(=O)C(F)(F)F)C1 [Compound 56, (R)-N-(2-(3-(3-((5-chloro-1H-indol-2-yl)methyl)-1-methylureido)piperidin-1-yl)-2-oxoethyl)-2,2,2-trifluoroacetamide]"
7,5650,"CN(C(=O)NCc1cc2cc(Cl)ccc2[nH]1)[C@@H]1CCCN(C(=O)CC(C)(C)O)C1 [Compound 80, (R)-3-((5-chloro-1H-indol-2-yl)methyl)-1-(1-(3-hydroxy-3-methylbutanoyl)piperidin-3-yl)-1-methylurea]"
8,351,"CC(=O)N1CCC[C@@H](N(C)C(=O)NCc2cc3cc(F)c(Cl)cc3[nH]2)C1 [Compound 164, (R)-1-(1-acetylpiperidin-3-yl)-3-((6-chloro-5-fluoro-1H-indol-2-yl)methyl)-1-methylurea]"
9,108,"CC(=O)N1CCC[C@@H](N(C)C(=O)NCc2[nH]c3ccc(Cl)cc3c2C)C1 [Compound 229, (R)-1-(1-acetylpiperidin-3-yl)-3-((5-chloro-3-methyl-1H-indol-2-yl)methyl)-1-methylurea]"
10,935,"CN(C(=O)NCc1cc2cc(Cl)ccc2[nH]1)[C@@H]1CCCN(C(=O)c2ccc(O)cc2F)C1 [Compound 63, (R)-3-((5-chloro-1H-indol-2-yl)methyl)-1-(1-(2-fluoro-4-hydroxybenzoyl)piperidin-3-yl)-1-methylurea]"
11,401,"CN(C(=O)NCc1cc2cc(Cl)ccc2[nH]1)[C@@H]1CCCN(C(=O)c2ccn(C)n2)C1 [Compound 54, (R)-3-((5-chloro-1H-indol-2-yl)methyl)-1-methyl-1-(1-(1-methyl-1H-pyrazole-3-carbonyl)piperidin-3-yl)urea]"
12,1400,"CN(C(=O)NCc1cc2cc(Cl)ccc2[nH]1)[C@@H]1CCCN(C(=O)c2ccncc2)C1 [Compound 34, (R)-3-((5-chloro-1H-indol-2-yl)methyl)-1-(1-isonicotinoylpiperidin-3-yl)-1-methylurea]"
13,113,"COC(=O)N1CCC[C@@H](N(C)C(=O)NCc2cc3cc(Cl)ccc3[nH]2)C1 [Compound 158, methyl (R)-3-(3-((5-chloro-1H-indol-2-yl)methyl)-1-methylureido)piperidine-1-carboxylate]"
14,428,"Cc1ncc(C(=O)N2CCC[C@@H](N(C)C(=O)NCc3cc4cc(Cl)ccc4[nH]3)C2)o1 [Compound 38, (R)-3-((5-chloro-1H-indol-2-yl)methyl)-1-methyl-1-(1-(2-methyloxazole-5-carbonyl)piperidin-3-yl)urea]"
